Consider three molecules from ChEMBL document CHEMBL5543142, “Discovery of YFJ-36: Design, Synthesis, and Antibacterial Activities of Catechol-Conjugated β-Lactams against Gram-Negative Bacteria” (J Med Chem, 2024).

The nature of data set [1]: AUC (0 to infinity) in ICR mouse at 20 mg/kg,iv administration measured upto 4 hrs by LC-MS/MS analysis. The data set is classed as ADME, organism-based. Conditions: in vivo.
A short description of data set [2]: Clearance in ICR mouse at 20 mg/kg,iv administration measured upto 4 hrs by LC-MS/MS analysis. The data set is classed as ADME, organism-based. Conditions: in vivo.
Data set [3] in a line: Half life in ICR mouse at 20 mg/kg,iv administration measured upto 4 hrs by LC-MS/MS analysis. The data set is classed as ADME, organism-based. Conditions: in vivo.
The nature of data set [4]: MRT in ICR mouse at 20 mg/kg,iv administration measured upto 4 hrs by LC-MS/MS analysis. The data set is classed as ADME, organism-based. Conditions: in vivo.
A short description of data set [5]: Volume of distribution at steady state in ICR mouse at 20 mg/kg,iv administration measured upto 4 hrs by LC-MS/MS analysis. The data set is classed as ADME, organism-based. Conditions: in vivo, read-out: Vdss.
A short description of data set [6]: AUC (0 to infinity) in Sprague-Dawley rat at 5 mg/kg,iv administration measured upto 4 hrs by LC-MS/MS analysis. The data set is classed as ADME, organism-based. Conditions: in vivo.
Data set [7] in a line: Clearance in Sprague-Dawley rat at 5 mg/kg,iv administration measured upto 4 hrs by LC-MS/MS analysis. Conditions: in vivo. The data set is classed as ADME, organism-based.
Data set [8] can be described thus: Half life in Sprague-Dawley rat at 5 mg/kg,iv administration measured upto 4 hrs by LC-MS/MS analysis. Conditions: in vivo. The data set is classed as ADME, organism-based.
Data set [9] in a line: MRT in Sprague-Dawley rat at 5 mg/kg,iv administration measured upto 4 hrs by LC-MS/MS analysis. The data set is classed as ADME, organism-based. Conditions: in vivo.
Data set [10] can be described thus: Volume of distribution at steady state in Sprague-Dawley rat at 5 mg/kg,iv administration measured upto 4 hrs by LC-MS/MS analysis. Conditions: in vivo, read-out: Vdss. The data set is classed as ADME, organism-based.
Data set [11] deals with Acinetobacter baumannii. In words: Antibacterial activity against multidrug-resistant Acinetobacter baumannii BM-2023-D2-010 infected in ICR mouse assessed as survival rate at 40 mg/kg,iv after 1 and 5 hour of post-infection measured after 7 days relative to control. The data set is classed as functional. Conditions: time 7 day.
For data set [12], the system named is Acinetobacter baumannii. In words: Antibacterial activity against multidrug-resistant Acinetobacter baumannii BM-2023-D2-010 infected in ICR mouse assessed as survival rate at 28 mg/kg,iv after 1 and 5 hour of post-infection measured after 7 days relative to control. The data set is classed as functional. Conditions: time 7 day.
For data set [13], the system named is Acinetobacter baumannii. In words: Antibacterial activity against multidrug-resistant Acinetobacter baumannii BM-2023-D2-010 infected in ICR mouse assessed as survival rate at 19.6 mg/kg,iv after 1 and 5 hour of post-infection measured after 7 days relative to control. The data set is classed as functional. Conditions: time 7 day.
Data set [14] has as its system Acinetobacter baumannii. Nature of the data set: Antibacterial activity against multidrug-resistant Acinetobacter baumannii BM-2023-D2-010 infected in ICR mouse assessed as survival rate at 13.7 mg/kg,iv after 1 and 5 hour of post-infection measured after 7 days relative to control. The data set is classed as functional. Conditions: time 7 day.
The subject of data set [15] is Acinetobacter baumannii. In words: Antibacterial activity against multidrug-resistant Acinetobacter baumannii BM-2023-D2-010 infected in ICR mouse assessed as survival rate at 9.6 mg/kg,iv after 1 and 5 hour of post-infection measured after 7 days relative to control. The data set is classed as functional. Conditions: time 7 day.
The test system of data set [16] is Acinetobacter baumannii. In words: Antibacterial activity against multidrug-resistant Acinetobacter baumannii BM-2023-D2-010 infected in ICR mouse assessed as survival rate at 6.72 mg/kg,iv after 1 and 5 hour of post-infection measured after 7 days relative to control. The data set is classed as functional. Conditions: time 7 day.
The subject of data set [17] is Acinetobacter baumannii. In words: Antibacterial activity against multidrug-resistant Acinetobacter baumannii BM-2023-D2-010 infected in ICR mouse assessed as survival rate at 4.71 mg/kg,iv after 1 and 5 hour of post-infection measured after 7 days relative to control. Conditions: time 7 day. The data set is classed as functional.
For another data set, the target named is hERG (KCNH2) (Homo sapiens, UniProt Q12809). In words: Inhibition of hERG at 3 uM by whole cell Qpatch assay relative to control. The data set is classed as toxicity. A general note: Block of hERG is tested as a sign of cardiac risk.
The nature of data set [18]: AUC (0 to infinity) in ICR mouse at 20 mg/kg,iv administration measured upto 6 hrs by LC-MS/MS analysis. The data set is classed as ADME, organism-based. Conditions: in vivo.
The nature of data set [19]: Clearance in ICR mouse at 20 mg/kg,iv administration measured upto 6 hrs by LC-MS/MS analysis. Conditions: in vivo. The data set is classed as ADME, organism-based.
A short description of data set [20]: Half life in ICR mouse at 20 mg/kg,iv administration measured upto 6 hrs by LC-MS/MS analysis. Conditions: in vivo. The data set is classed as ADME, organism-based.
Data set [21] is described as follows: MRT in ICR mouse at 20 mg/kg,iv administration measured upto 6 hrs by LC-MS/MS analysis. The data set is classed as ADME, organism-based. Conditions: in vivo.
A short description of data set [22]: Volume of distribution at steady state in ICR mouse at 20 mg/kg,iv administration measured upto 6 hrs by LC-MS/MS analysis. The data set is classed as ADME, organism-based. Conditions: in vivo, read-out: Vdss.
Data set [23] concerns Acinetobacter baumannii. In words: Antibacterial activity against multidrug-resistant Acinetobacter baumannii BM-2023-D2-010 infected in ICR mouse assessed as survival rate at 3.3 mg/kg,iv after 1 and 5 hour of post-infection measured after 7 days relative to control. The data set is classed as functional. Conditions: time 7 day.

By AUC(0-inf) is commonly meant the area under the concentration-time curve extrapolated to infinity. Lower therefore signals low exposure. In general, clearance refers to a measure of how efficiently the substance is removed, as volume per time. Higher therefore signals a high capacity for elimination. For orientation: half-life means the time needed for the level to fall by half in the phase considered. What is called MRT is the average time that molecules of a dose stay in the body. By inhibition is commonly meant the change of the read-out against control, counted positive when it falls. Higher therefore signals strong suppression.

Chain of hERG (KCNH2) (Q12809 whole entry): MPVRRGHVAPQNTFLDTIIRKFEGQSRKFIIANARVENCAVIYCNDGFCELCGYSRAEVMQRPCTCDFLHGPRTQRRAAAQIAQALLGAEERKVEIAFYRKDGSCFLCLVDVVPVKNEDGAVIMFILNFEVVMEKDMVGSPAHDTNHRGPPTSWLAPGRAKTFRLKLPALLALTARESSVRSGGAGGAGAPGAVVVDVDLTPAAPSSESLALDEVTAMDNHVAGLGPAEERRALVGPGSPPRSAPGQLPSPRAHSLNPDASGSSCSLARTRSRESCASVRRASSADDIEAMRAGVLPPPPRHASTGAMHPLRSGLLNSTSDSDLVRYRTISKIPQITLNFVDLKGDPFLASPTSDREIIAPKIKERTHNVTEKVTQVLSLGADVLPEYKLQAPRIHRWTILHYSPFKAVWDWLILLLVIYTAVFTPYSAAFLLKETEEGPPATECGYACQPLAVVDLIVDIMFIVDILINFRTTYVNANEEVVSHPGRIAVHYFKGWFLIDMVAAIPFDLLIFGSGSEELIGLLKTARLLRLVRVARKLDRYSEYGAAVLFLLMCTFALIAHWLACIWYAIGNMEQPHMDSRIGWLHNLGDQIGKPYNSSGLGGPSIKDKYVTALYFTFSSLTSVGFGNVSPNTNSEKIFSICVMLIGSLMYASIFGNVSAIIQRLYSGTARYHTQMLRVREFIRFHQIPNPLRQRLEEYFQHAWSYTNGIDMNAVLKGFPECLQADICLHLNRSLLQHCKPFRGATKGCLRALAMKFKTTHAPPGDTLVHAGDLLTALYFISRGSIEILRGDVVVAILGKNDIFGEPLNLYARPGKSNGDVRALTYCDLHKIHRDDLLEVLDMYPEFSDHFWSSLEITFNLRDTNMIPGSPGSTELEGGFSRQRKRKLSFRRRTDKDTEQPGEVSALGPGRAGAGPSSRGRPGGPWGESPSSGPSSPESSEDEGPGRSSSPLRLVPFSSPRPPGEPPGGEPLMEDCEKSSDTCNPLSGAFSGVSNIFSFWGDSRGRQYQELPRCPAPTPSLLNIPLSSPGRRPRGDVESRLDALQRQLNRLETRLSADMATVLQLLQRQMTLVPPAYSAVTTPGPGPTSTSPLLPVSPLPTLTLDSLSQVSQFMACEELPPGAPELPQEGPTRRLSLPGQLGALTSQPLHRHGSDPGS

With `Nc1nc(/C(=N/O[C@@H](C(=O)[O-])C2CCC(F)(F)CC2)C(=O)N[C@@H]2C(=O)N3C(C(=O)O)=C(CSCCNC(=O)c4ccc(O)c(O)c4Cl)CS[C@H]23)cs1.[Na+]`, the AUC(0-inf) in [1] was 8910 ng·h/mL; in [6], 2260 ng·h/mL. Moreover, the clearance was found to be 49.8 mL/min/kg in [2] and 38.7 mL/min/kg in [7]. Further, the values for the half-life in [3] and in data set [8] were 29.4 min and 13.8 min, respectively. The MRT in data set [4] and in [9] was 9.6 min each time. Also, the Vd in [5] was 0.488 L/kg; in data set [10], 0.37 L/kg. Moreover, the Activity with Acinetobacter baumannii [11] amounted to 100%; in the data set with Acinetobacter baumannii [12], 100%; with Acinetobacter baumannii [13], 100%; with Acinetobacter baumannii [14], 100%; in the data set on Acinetobacter baumannii [15], 70%; in the data set on Acinetobacter baumannii [16], 30%. For the same molecule, the Activity in the data set on Acinetobacter baumannii [17] was found to be 20%.

Take `COc1cc(N)c(Cl)cc1C(=O)N[C@H]1CCN(CCCOc2ccc(F)cc2)C[C@H]1OC` [REL-CISAPRIDE]: on hERG (KCNH2), the inhibition at 3 µM was found to be 97.8%.

Consider `CC(C)(O/N=C(\C(=O)N[C@@H]1C(=O)N2C(C(=O)[O-])=C(C[N+]3(CCNC(=O)c4ccc(O)c(O)c4Cl)CCCC3)CS[C@H]12)c1csc(N)n1)C(=O)[O-].[Na+]`, for which, in data set [18], the AUC(0-inf) came to 11600 ng·h/mL. This molecule returned a clearance in [19] of 29.2 mL/min/kg. The molecule further had a half-life in data set [20] of 16.2 min. The same molecule returned an MRT in data set [21] of 16.8 min. The Vd in [22] worked out at 0.488 L/kg. For the same molecule, the Activity in the data set with Acinetobacter baumannii [11] was determined as 100%; in the data set on Acinetobacter baumannii [12], 100%; with Acinetobacter baumannii [13] it was 100%; with Acinetobacter baumannii [14], 100%; in the data set with Acinetobacter baumannii [15], 70%; with Acinetobacter baumannii [16], 50%. Also, the Activity in the data set with Acinetobacter baumannii [17] is 20%; in the data set on Acinetobacter baumannii [23] it was 0%.
